Measured values taken from the NIST ThermoML archive (doi:10.1016/j.tca.2012.06.011).

Assay: xn = mol fraction of the nth substance listed
Conditions: 101 kPa, Liquid; for viscosity: Capillary tube (Ostwald / Ubbelohde) method; for mass density: Vibrating tube method

C1C[C@@H]2[C@H]3CC[C@H](C3)[C@@H]2C1 [exo-tetrahydrodicyclopentadiene] + CCN(CC)CC
Conditions	mass density, 298.15 K [kg/m3]	mass density, 303.15 K [kg/m3]	mass density, 308.15 K [kg/m3]	mass density, 313.15 K [kg/m3]	mass density, 323.15 K [kg/m3]	viscosity, 298.15 K [mPa·s]	viscosity, 303.15 K [mPa·s]	viscosity, 308.15 K [mPa·s]	viscosity, 313.15 K [mPa·s]	viscosity, 323.15 K [mPa·s]
x2 = 0	931.29	927.38	923.46	919.54	911.7	2.8	2.549	2.332	2.124	1.811
x2 = 0.1347	906.47	902.17	898.15	894.12	885.86	2.034	1.871	1.714	1.57	1.36
x2 = 0.2521	883.66	879.54	875.44	871.32	863.09	1.535	1.421	1.324	1.217	1.063
x2 = 0.365	861.16	856.98	852.8	848.59	840.22	1.188	1.109	1.035	0.955	0.842
x2 = 0.4709	839.56	835.31	831.04	826.75	818.22	0.961	0.893	0.829	0.77	0.69
x2 = 0.5711	818.66	814.33	809.98	805.62	796.93	0.779	0.738	0.691	0.649	0.578
x2 = 0.6683	798.2	793.7	789.27	784.85	775.97	0.653	0.618	0.583	0.547	0.492
x2 = 0.7585	778.5	773.97	769.46	764.95	755.83	0.55	0.524	0.503	0.463	0.431
x2 = 0.8414	759.95	755.41	750.85	746.25	737.14	0.476	0.455	0.433	0.406	0.373
x2 = 0.9136	743.67	739.07	734.45	729.79	720.56	0.419	0.399	0.38	0.368	0.327

CN1CCNCC1 [N-methylpiperazine] + C1C[C@@H]2[C@H]3CC[C@H](C3)[C@@H]2C1
Conditions	mass density, 298.15 K [kg/m3]	mass density, 303.15 K [kg/m3]	mass density, 308.15 K [kg/m3]	mass density, 313.15 K [kg/m3]	mass density, 323.15 K [kg/m3]	viscosity, 298.15 K [mPa·s]	viscosity, 303.15 K [mPa·s]	viscosity, 308.15 K [mPa·s]	viscosity, 313.15 K [mPa·s]	viscosity, 323.15 K [mPa·s]
x1 = 0.1337	925.63	921.65	917.65	913.66	905.68	2.432	2.214	2.021	1.844	1.574
x1 = 0.2543	920.97	916.91	912.83	908.76	900.62	2.247	2.051	1.868	1.694	1.452
x1 = 0.3678	916.92	912.79	908.63	904.48	896.19	2.125	1.925	1.752	1.583	1.351
x1 = 0.4768	913.25	909.05	904.83	900.62	892.2	2.016	1.822	1.655	1.492	1.281
x1 = 0.577	910.05	905.8	901.53	897.26	888.74	1.943	1.756	1.583	1.435	1.237
x1 = 0.672	907.32	903.04	898.72	894.4	885.79	1.921	1.708	1.545	1.399	1.195
x1 = 0.76	904.59	900.27	895.93	891.58	882.9	1.893	1.681	1.512	1.362	1.162
x1 = 0.8407	902.15	897.92	893.59	889.24	880.55	1.894	1.656	1.502	1.35	1.154
x1 = 0.9242	900.27	895.92	891.51	887.11	878.34	1.877	1.632	1.467	1.318	1.116
x1 = 1	899.28	894.9	890.5	886.07	877.28	1.854	1.583	1.409	1.258	1.064
